Test results reported in patent US20040192774A1, “Method for improving the well-being of poultry by in-ovo injection of carnitine” (priority 2001, published 2004).

How the values were obtained:
[1] = system: Cobb-500 strain of broiler chicken; experiment: Metabolic chamber studies: subnormal oxygen supply, ascites model; type: in vivo; settings: for HCT (hematocrit, packed cell volume) / AS (ascites score): day 14, 17% oxygen
Description: In the context of the present invention, the ascites score is understood as an empirical score from 0 to 3 indicating no to severe myocardial degeneration, based on the histopathological changes. Pathological changes in cardiac traits such as right ventricle weight and ascites heart ratio, defined as the ratio of right ventricle weight to total ventricle weight, are also taken into account.
A score of zero indicated minimal fat deposition and myofiber size variation, whereas a score of three indicated marked myocardial degeneration, highly abnormal cardiac traits and arteritis. A score of two was intermediate to the two extremes.
(§1) Approximately 4000 embryonated, freshly laid eggs of Cobb-500 strain of broiler chicken (obtained from Cobb Vantress of Siloam Springs, Ark.) were pre-selected as to uniformity of weight and originated from breeder hens at approximately 35-45 weeks of the production cycle. The eggs were kept in a climatised incubation chamber at 37° C. up to day 18 post-laying. Eggs were then injected with either 100 μl sterile physiological saline or 150 μg carnitine comprised in 100 μl sterile physiological saline on day 18 of incubation. Incubation was then carried on until hatch. Carnitine was commercially available L-Carnitine (trade name: Carnifeed, Lonza Inc., 100% L-Carnitine). The eggs were injected with the automatic inovoject-system of Embrex, Inc. (maximum capacity: 50,000 eggs per hour). The system punches a tiny hole into the egg shell and then lowers a needle through the hole which delivers the therapeutic product to the embryo. Needles are automatically sanitized after each injection and provide for 100% inoculation.
(§2) To assess the effect of the carnitine injection carried out according to Example 1, birds were selected at random from the birds originating from the Example 1 and raised up to 70 days. The birds were either placed in a commercial production environment (12 floor pens/trt; 50 birds/pen) or in metabolic chambers with normal feed but subnormal, controlled oxygen supply. The latter is an accepted testing model for trigger the ascites condition in predispositioned birds. Approximately 2400 chicks were allocated to floor pen groups as described below. Three hundred birds were selected at random and incubated in the metabolic chambers. Standard feeds were applied (similar to diets fed to commercial broiler chickens); and nutrient specifications are shown below. Feeds were mixed according to accepted mixing procedures such that treatment diets only differed in presence or absence of carnitine.
Chicks were reared in air-tight chambers at subnormal oxygen supply simulating high altitude conditions. Feed and drinking water were provided for ad-libitum consumption. Chamber temperature was maintained at 30° C. the first 5 days of age and at 27.8° C. thereafter. Chambers were checked twice daily for bird mortality. Compressed dried air (7% relative humidity (rH), 17% oxygen) was delivered to chicks in the chamber via polyethylene tubes. It was necessary to provide low rH-air to the chick chamber in order to hold the chamber at rH below 75%. The concentration of oxygen and carbon dioxide in air exiting each bird's chamber was monitored every 15-25 minutes using Ametek oxygen (accuracy±0.2%) and carbon dioxide (accuracy±0.3%) analyzers, respectively.
Apart from body weight and body temperature at hatching (day 0; BW0, BT0), ascites score (AS) and hematocrit (packed cell volume; HCT) of chicks were determined at day 14. Blood (2 ml) was taken from the birds via venipuncture after which they were euthanized using CO2 and necropsies were performed.
Hearts were weighed whole and then dissected for determination of ascites heart ratio. Heart sections were taken and fixed in 10% buffered neutral formalin for histopathologic examinantion. The results of heart dissection and histopathological analysis were summarized in the ascites score.

[2] = system: Cobb-500 strain of broiler chicken; experiment: Floor pen studies: broiler performance after day 18 in-ovo carnitine injection (or carnitine-supplemented feed); type: in vivo; settings: for FCR 0-49 (feed conversion ratio): 0 to 49 days post-hatch; for FCR 0-70 (feed conversion ratio): 0 to 70 days post-hatch; for FCR 49-70 (feed conversion ratio): 49 to 70 days post-hatch
Procedure: as §1, §2
Data were analyzed using the General Linear Model procedure of SAS (SAS, 1985). When a significant F statistic was noted by ANOVA, treatment means were compared using least square analysis variance.
Data are only given where probability levels were p≦0.10. In general, carnitine effects, though not always being statistically significant at p<0.05, were consistent across trials.
Number of days post-hatch are indicated, e.g., BW21: Hatched chicks were grown for 21 days prior to measurement.
Mortality (M) is given as main effect mean in %. Number of days post-hatch are indicated, e.g., M21-49: percentage of death birds in the period of 21 to 49 days post-hatch.
Main effect means for feed conversion ratio (FCR, in grams of feed per gram of gain) is given. Number of days post-hatch are indicated, e.g., FCR 0-49: FCR in the period 0 to 49 days post-hatch that chicks were grown. For further control, the effect of in-ovo injection was compared to that of feeding the same diet, except that this diet was supplemented with carnitine at 200 ppm. Feed conversion was improved by carnitine treatment, either fed or injected. The results from both methods of carnitine administration were consistent.

[3] = injection of carnitine versus not injected
[4] = fed: diet supplemented with carnitine at 200 ppm

With `C[N+](C)(C)CC(O)CC(=O)[O-]` (stereo not drawn) [carnitine, 3-hydroxy-4-N-trimethylaminobutyric acid] the “HCT (hematocrit, packed cell volume)” value ([1]; fed: L-carnitine at 200 ppm (coated on silica particles) via the feed) was 30.25 Percent packed cells, the “AS (ascites score)” value ([1]; fed: L-carnitine at 200 ppm (coated on silica particles) via the feed, scale from 0-3) was 0.303 and the “BT 0 (body temperature at hatching)” value ([1]; in-ovo injected day 18, day 0) was 101.73 ° F. The “BW 0 (body weight at hatching)” value ([1]; in-ovo injected day 18, day 0) was 38.82 g, the “HCT (hematocrit, packed cell volume)” value ([1]; in-ovo injected day 18) was 30.04 Percent packed cells and the “AS (ascites score)” value ([1]; in-ovo injected day 18, scale from 0-3 (no, slight, moderate, severe ascites lesions)) was 0.277. For the same molecule, the “effect on ascites score (in words)” value [1, 3] was “decreased”, the “effect on hematocrit (in words)” value [1, 3] was “decreased” and the “increase of body weight at hatching” value ([1]; single injection of carnitine into incubating eggs, versus control) was 0.5 g. For the same molecule, the “BW 21 (body weight, main effect mean)” value ([2]; 150 μg carnitine in-ovo injected on day 18 of incubation, 21 days post-hatch) was 719.9 g, the “BW 49 (body weight, main effect mean)” value ([2]; 150 μg carnitine in-ovo injected on day 18 of incubation, 49 days post-hatch) was 2940.7 g and the “BW 70 (body weight, main effect mean)” value ([2]; 150 μg carnitine in-ovo injected on day 18 of incubation, 70 days post-hatch) was 4168.1 g. The “effect on feed conversion (in words)” value ([2]; carnitine treatment, either fed or injected) was “improved”, the “FCR 0-49 (feed conversion ratio)” value [2, 4] was 1.817 grams of feed per gram of gain and the “FCR 0-70 (feed conversion ratio)” value [2, 4] was 2.331 grams of feed per gram of gain. For the same molecule, the “FCR 49-70 (feed conversion ratio)” value [2, 4] was 3.535 grams of feed per gram of gain, the “FCR 0-49 (feed conversion ratio)” value ([2]; in-ovo injected day 18) was 1.839 grams of feed per gram of gain and the “FCR 0-70 (feed conversion ratio)” value ([2]; in-ovo injected day 18) was 2.369 grams of feed per gram of gain. The “FCR 49-70 (feed conversion ratio)” value ([2]; in-ovo injected day 18) was 3.648 grams of feed per gram of gain, the “WG 0-21 (weight gain, main effect mean)” value ([2]; in-ovo injected day 18, period 0-21 days post-hatch) was 681.7 g and the “M 0-70 (mortality, main effect mean)” value ([2]; in-ovo injected day 18, period 0 to 70 days post-hatch) was 21.92%. The “WG 21-49 (weight gain, main effect mean)” value ([2]; in-ovo injected day 18, period 21-49 days post-hatch) was 2220.8 g, the “M 21-49 (mortality, main effect mean)” value ([2]; in-ovo injected day 18, period 21 to 49 days post-hatch) was 4.66% and the “WG 49-70 (weight gain, main effect mean)” value ([2]; in-ovo injected day 18, period 49-70 days post-hatch) was 1227.4 g. The “M 49-70 (mortality, main effect mean)” value ([2]; in-ovo injected day 18, period 49 to 70 days post-hatch) was 14.33%, the “weight per 100 chicks started” value ([2]; in-ovo injected eggs, end of the 70 days period post-hatch) was 32.54 kg and the “mortality rate, cumulative” value ([2]; in-ovo injection, highest age) was roughly 20%.
